Results published in article PMC9820763, “The Functional Characterization of Carboxylesterases Involved in the Degradation of Volatile Esters Produced in Strawberry Fruits” (International Journal of Molecular Sciences, 2022).

Experiments:
rFaCXE3 (FaCXE3) = tested on: T1, rFaCXE3 (FaCXE3); test: GC-MS of alcohol product, double-reciprocal plot; type: biochemical, Fragaria x ananassa; conditions: Tris-HCl 100 mM, pH 7.5, 30 °C
T1 construct: fusion protein about 35-40 kDa; cloned from strawberry green fruit cDNA
Source text: GC-MS of alcohol product, double-reciprocal plot on rFaCXE3 (FaCXE3)

rFaCXE2 (FaCXE2) = tested on: T2, rFaCXE2 (FaCXE2); test: GC-MS of alcohol product, double-reciprocal plot; type: biochemical, Fragaria x ananassa; conditions: Tris-HCl 100 mM, pH 7.5, 30 °C
T2 construct: fusion protein about 35-40 kDa; cloned from strawberry green fruit cDNA
Source text: GC-MS of alcohol product, double-reciprocal plot on rFaCXE2 (FaCXE2)

Row | Km (rFaCXE3 (FaCXE3)) [µM] | Km (rFaCXE2 (FaCXE2)) [µM] | SMILES
1 | 980 ± 110 | 1040 ± 50 | CCC/C=C/COC(C)=O [E-2-Hexenyl acetate]
2 | 840 ± 70 | 10900 ± 840 | CCCCCCOC(C)=O [Hexyl acetate]
3 | 950 ± 50 | 2500 ± 130 | CC/C=C\CCOC(C)=O [Z-3-Hexenyl acetate]
